Laboratory results taken from BindingDB's records for doi:10.1016/j.bmcl.2007.12.038 (St. Jude Children'S Research Hospital, 2008).

Key:
[1] = Binding affinity to GST tagged human beta 2 adrenergic receptor PDZ1 domain
[2] = Binding affinity to GST tagged human CFTR PDZ2 domain

Row | IC50 [1] | IC50 [2] | SMILES
1 | 1540 µM | 160 µM | CCCCC(O)c1[nH]c2cc(C)c(C(=O)O)cc2c1CCc1ccccc1 (stereo unspecified) [2-(1-hydroxypentyl)-6-methyl-3-phenethyl-1H-indole-5-carboxylic acid]
2 | 777 µM | 330 µM | Cc1cc2[nH]c(C(O)CCCC(=O)O)c(CCc3ccccc3)c2cc1C(=O)O (stereo unspecified) [2-(4-carboxy-1-hydroxybutyl)-6-methyl-3-phenethyl-1H-indole-5-carboxylic acid]
3 | 280 µM | 380 µM | CCCCCc1c(CO)c2cc(C)c(C(=O)O)cc2n1CCc1ccccc1 [3-(hydroxymethyl)-5-methyl-2-pentyl-1-phenethyl-1H-indole-6-carboxylic acid]
